# Patent publication US20100222332A1, “PYRAZOLO-PYRAZINES DERIVATIVES USED AS G PROTEIN INHIBITORS” (Ipsen Pharma S.A.S., priority 2007, published 2010)
# Counter-ions that a name gives are not always drawn.
row,melting point,Compound
1,223 °C (dec.),"N[C@@H](CSSC[C@H](N)C(=O)N1CCn2nc(-c3cccnc3)cc2C1CCc1ccccc1)C(=O)N1CCn2nc(-c3cccnc3)cc2C1CCc1ccccc1 (mixture of isomers) (as salt: hydrochloride) [Example 15, (2R)-3-({(2R)-2-amino-3-oxo-3-[(4RS)-4-(2-phenylethyl)-2-pyridin-3-yl-6,7-dihydropyrazolo[1,5-a]pyrazin-5(4H)-yl]propyl}dithio)-1-oxo-1-[(4RS)-4-(2-phenylethyl)-2-pyridin-3-yl-6,7-dihydropyrazolo[1,5-a]pyrazin-5(4H)-yl]propan-2-amine hydrochloride]"
2,210 to 215 °C (dec.),"CCCCC1c2cc(-c3ccccc3)nn2CCN1C(=O)[C@@H](N)CSSC[C@H](N)C(=O)N1CCn2nc(-c3ccccc3)cc2C1CCCC (mixture of isomers) (as salt: hydrochloride) [Example 21, (2R)-3-({(2R)-2-amino-3-[(4RS)-4-butyl-2-phenyl-6,7-dihydropyrazolo[1,5-a]pyrazin-5(4H)-yl]-3-oxopropyl}dithio)-1-[(4RS)-4-butyl-2-phenyl-6,7-dihydropyrazolo[1,5-a]pyrazin-5(4H)-yl]-1-oxopropan-2-amine hydrochloride]"
3,218 °C (dec.),"N[C@@H](CSSC[C@H](N)C(=O)N1CCn2nc(-c3ccccc3)cc2C1CC1CCCCC1)C(=O)N1CCn2nc(-c3ccccc3)cc2C1CC1CCCCC1 (mixture of isomers) (as salt: hydrochloride) [Example 12, (2R)-3-({(2R)-2-amino-3-[(4RS)-4-(cyclohexylmethyl)-2-phenyl-6,7-dihydropyrazolo[1,5-a]pyrazin-5(4H)-yl]-3-oxopropyl}dithio)-1-[(4RS)-4-(cyclohexylmethyl)-2-phenyl-6,7-dihydropyrazolo[1,5-a]pyrazin-5(4H)-yl]-1-oxopropan-2-amine hydrochloride]"
4,212 to 217 °C,"N[C@@H](CSSC[C@H](N)C(=O)N1CCn2nc(-c3ccccc3)cc2[C@H]1CC1CCCCC1)C(=O)N1CCn2nc(-c3ccccc3)cc2[C@H]1CC1CCCCC1 (as salt: hydrochloride) [Example 26, (1R)-3-({(2R)-2-amino-3-[(4R)-4-(cyclohexylmethyl)-2-phenyl-6,7-dihydropyrazolo[1,5-a]pyrazin-5(4H)-yl]-3-oxopropyl}dithio)-1-[(4R)-4-(cyclohexylmethyl)-2-phenyl-6,7-dihydropyrazolo[1,5-a]pyrazin-5(4H)-yl]-1-oxopropan-2-amine hydrochloride]"
5,117 to 120 °C,CC(C)(C)OC(=O)N[C@@H](C[Se][Se]C[C@H](NC(=O)OC(C)(C)C)C(=O)N1CCn2nc(-c3ccccc3)cc2C1CC1CCCCC1)C(=O)N1CCn2nc(-c3ccccc3)cc2C1CC1CCCCC1 (mixture of isomers)
6,221 °C (dec.),"N[C@@H](CSSC[C@H](N)C(=O)N1CCn2nc(-c3ccc4c(c3)OCO4)cc2C1CCc1ccccc1)C(=O)N1CCn2nc(-c3ccc4c(c3)OCO4)cc2C1CCc1ccccc1 (mixture of isomers) (as salt: hydrochloride) [Example 16, (2R)-3-({(2R)-2-amino-3-[(4RS)-2-(1,3-benzodioxol-5-yl)-4-(2-phenylethyl)-6,7-dihydropyrazolo[1,5-a]pyrazin-5(4H)-yl]-3-oxopropyl}dithio)-1-[(4RS)-2-(1,3-benzodioxol-5-yl)-4-(2-phenylethyl)-6,7-dihydropyrazolo[1,5-a]pyrazin-5(4H)-yl]-1-oxopropan-2-amine hydrochloride]"
7,218 °C (dec.),"N[C@@H](CSSC[C@H](N)C(=O)N1CCn2nc(-c3cccs3)cc2C1CCc1ccccc1)C(=O)N1CCn2nc(-c3cccs3)cc2C1CCc1ccccc1 (mixture of isomers) (as salt: hydrochloride) [Example 18, (2R)-3-({(2R)-2-amino-3-oxo-3-[(4RS)-4-(2-phenylethyl)-2-(2-thienyl)-6,7-dihydropyrazolo[1,5-a]pyrazin-5(4H)-yl]propyl}dithio)-1-oxo-1-[(4RS)-4-(2-phenylethyl)-2-(2-thienyl)-6,7-dihydropyrazolo[1,5-a]pyrazin-5(4H)-yl]propan-2-amine hydrochloride]"
8,214 to 219 °C,"N[C@@H](CSSC[C@H](N)C(=O)N1CCn2nc(-c3ccccc3)cc2[C@@H]1CC1CCCCC1)C(=O)N1CCn2nc(-c3ccccc3)cc2[C@@H]1CC1CCCCC1 (as salt: hydrochloride) [Example 24, (2R)-3-({(2R)-2-amino-3-[(4S)-4-(cyclohexylmethyl)-2-phenyl-6,7-dihydropyrazolo[1,5-a]pyrazin-5(4H)-yl]-3-oxopropyl}dithio)-1-[(4S)-4-(cyclohexylmethyl)-2-phenyl-6,7-dihydropyrazolo[1,5-a]pyrazin-5(4H)-yl]-1-oxopropan-2-amine hydrochloride]"
9,217 to 220 °C (dec.),N[C@@H](C[Se][Se]C[C@H](N)C(=O)N1CCn2nc(-c3ccccc3)cc2C1CC1CCCCC1)C(=O)N1CCn2nc(-c3ccccc3)cc2C1CC1CCCCC1 (mixture of isomers) (as salt: hydrochloride)
10,198 to 208 °C,"N[C@@H](CSSC[C@H](N)C(=O)N1CCCn2nc(-c3ccccc3)cc2C1CC1CCCCC1)C(=O)N1CCCn2nc(-c3ccccc3)cc2C1CC1CCCCC1 (mixture of isomers) (as salt: hydrochloride) [Example 28, {(1R)-1-[({(2R)-2-amino-3-[(4RS)-4-(cyclohexylmethyl)-2-phenyl-7,8-dihydro-4H-pyrazolo[1,5-a][1,4]diazepin-5(6H)-yl]-3-oxopropyl}dithio)methyl]-2-[(4RS)-4-(cyclohexylmethyl)-2-phenyl-7,8-dihydro-4H-pyrazolo[1,5-a][1,4]diazepin-5(6H)-yl]-2-oxoethyl}amine hydrochloride]"

# Second part, the compound before the results:
row,Compound,melting point
1,"CCCCC1c2cc(-c3ccccc3)nn2CCN1C(=O)[C@H](CSSC[C@H](NC(=O)OC(C)(C)C)C(=O)N1CCn2nc(-c3ccccc3)cc2C1CCCC)NC(=O)OC(C)(C)C (mixture of isomers) [Example 10, tert-butyl {(1R)-1-[({(2R)-2-[(tert-butoxycarbonyl)amino]-3-[(4RS)-4-butyl-2-phenyl-6,7-dihydropyrazolo[1,5-a]pyrazin-5(4H)-yl]-3-oxopropyl}dithio)methyl]-2-[(4RS)-4-butyl-2-phenyl-6,7-dihydropyrazolo[1,5-a]pyrazin-5(4H)-yl]-2-oxoethyl}carbamate]",95 to 102 °C
2,"CC(C)(C)OC(=O)N[C@@H](CSSC[C@H](NC(=O)OC(C)(C)C)C(=O)N1CCn2nc(-c3ccccc3)cc2[C@H]1CC1CCCCC1)C(=O)N1CCn2nc(-c3ccccc3)cc2[C@H]1CC1CCCCC1 [Example 25, tert-butyl {(1R)-1-[({(2R)-2-[(tert-butoxycarbonyl)amino]-3-[(4R)-4-(cyclohexylmethyl)-2-phenyl-6,7-dihydropyrazolo[1,5-a]pyrazin-5(4H)-yl]-3-oxopropyl}dithio)methyl]-2-[(4R)-4-(cyclohexylmethyl)-2-phenyl-6,7-dihydropyrazolo[1,5-a]pyrazin-5(4H)-yl]-2-oxoethyl}carbamate]",114 to 139 °C
3,"CC(C)(C)OC(=O)N[C@@H](CSSC[C@H](NC(=O)OC(C)(C)C)C(=O)N1CCn2nc(-c3ccccc3)cc2C1CCc1ccccc1)C(=O)N1CCn2nc(-c3ccccc3)cc2C1CCc1ccccc1 (mixture of isomers) [Example 2, tert-butyl {(1R)-1-[({(2R)-2-[(tert-butoxycarbonyl)amino]-3-oxo-3-[(4RS)-2-phenyl-4-(2-phenylethyl)-6,7-dihydropyrazolo[1,5-a]pyrazin-5(4H)-yl]propyl}dithio)methyl]-2-oxo-2-[(4RS)-2-phenyl-4-(2-phenylethyl)-6,7-dihydropyrazolo[1,5-a]pyrazin-5(4H)-yl]ethyl}carbamate]",123 to 127 °C
4,"COc1cc(-c2cc3n(n2)CCN(C(=O)[C@H](CSSC[C@H](NC(=O)OC(C)(C)C)C(=O)N2CCn4nc(-c5cc(OC)c(OC)c(OC)c5)cc4C2CCc2ccccc2)NC(=O)OC(C)(C)C)C3CCc2ccccc2)cc(OC)c1OC (mixture of isomers) [Example 6, tert-butyl {(1R)-1-[({(2R)-2-[(tert-butoxycarbonyl)amino]-3-oxo-3-[(4RS)-4-(2-phenylethyl)-2-(3,4,5-trimethoxyphenyl)-6,7-dihydropyrazolo[1,5-a]pyrazin-5(4H)-yl]propyl}dithio)methyl]-2-oxo-2-[(4RS)-4-(2-phenylethyl)-2-(3,4,5-trimethoxyphenyl)-6,7-dihydropyrazolo[1,5-a]pyrazin-5(4H)-yl]ethyl}carbamate]",130 to 136 °C
5,"CC(C)(C)OC(=O)N[C@@H](CSSC[C@H](NC(=O)OC(C)(C)C)C(=O)N1CCn2nc(-c3ccccc3)cc2C1CC1CCCCC1)C(=O)N1CCn2nc(-c3ccccc3)cc2C1CC1CCCCC1 (mixture of isomers) [Example 1, tert-butyl {(1R)-1-[({(2R)-2-[(tert-butoxycarbonyl)amino]-3-[(4RS)-4-(cyclohexylmethyl)-2-phenyl-6,7-dihydropyrazolo[1,5-a]pyrazin-5(4H)-yl]-3-oxopropyl}dithio)methyl]-2-[(4RS)-4-(cyclohexylmethyl)-2-phenyl-6,7-dihydropyrazolo[1,5-a]pyrazin-5(4H)-yl]-2-oxoethyl}carbamate]",129 to 132 °C
6,"COc1cc(-c2cc3n(n2)CCN(C(=O)[C@@H](N)CSSC[C@H](N)C(=O)N2CCn4nc(-c5cc(OC)c(OC)c(OC)c5)cc4C2CCc2ccccc2)C3CCc2ccccc2)cc(OC)c1OC (mixture of isomers) (as salt: hydrochloride) [Example 17, (2R)-3-({(2R)-2-amino-3-oxo-3-[(4RS)-4-(2-phenylethyl)-2-(3,4,5-trimethoxyphenyl)-6,7-dihydropyrazolo[1,5-a]pyrazin-5(4H)-yl]propyl}dithio)-1-oxo-1-[(4RS)-4-(2-phenylethyl)-2-(3,4,5-trimethoxyphenyl)-6,7-dihydropyrazolo[1,5-a]pyrazin-5(4H)-yl]propan-2-amine hydrochloride]",211 °C (dec.)
7,"CC(C)(C)OC(=O)N[C@@H](CSSC[C@H](NC(=O)OC(C)(C)C)C(=O)N1CCn2nc(-c3cccs3)cc2C1CCc1ccccc1)C(=O)N1CCn2nc(-c3cccs3)cc2C1CCc1ccccc1 (mixture of isomers) [Example 7, tert-butyl {(1R)-1-[({(2R)-2-[(tert-butoxycarbonyl)amino]-3-oxo-3-[(4RS)-4-(2-phenylethyl)-2-(2-thienyl)-6,7-dihydropyrazolo[1,5-a]pyrazin-5(4H)-yl]propyl}dithio)methyl]-2-oxo-2-[(4RS)-4-(2-phenylethyl)-2-(2-thienyl)-6,7-dihydropyrazolo[1,5-a]pyrazin-5(4H)-yl]ethyl}carbamate]",105 to 112 °C
